Results from US7125679B2, “Methods to screen peptide libraries using minicell display” (Children's Medical Center Corporation, priority 2001, dated 2006).

Key:
angiogenesis = experiment: Anti-angiogenic activity
melanoma cell = experiment: Melanoma cell attachment; assay type: cell-based
tumor cells [1] = experiment: Apoptosis of tumor cells; assay type: cell-based
Description: Many cells may undergo programmed cell death which is a genetically mediated form of self destruction. This phenomenon is commonly referred to in the art as apoptosis. Frequently, apoptotic cells may be recognized by changes in their biochemical, morphological and molecular features. Morphological changes include, but are not limited to, cell shape change, cell shrinkage, cell detachment, apoptotic bodies, nuclear fragmentation, nuclear envelope changes and loss of cell surface structures. Biochemical changes may include proteolysis, protein cross linking, DNA denaturation, cell dehydration, intranucleosomal cleavage and a rise in free calcium ions. Such characteristics are easily identifiable by methods well established in the art. Peptides isolated by the disclosed mini-cell display method are tested for their effects on such physiological and biochemical processes.

β3 = molecular target: T1, β3 (Homo sapiens, UniProt P05106); experiment: β3 attachment; assay type: cell-based
T1 sequence (P05106 27-788): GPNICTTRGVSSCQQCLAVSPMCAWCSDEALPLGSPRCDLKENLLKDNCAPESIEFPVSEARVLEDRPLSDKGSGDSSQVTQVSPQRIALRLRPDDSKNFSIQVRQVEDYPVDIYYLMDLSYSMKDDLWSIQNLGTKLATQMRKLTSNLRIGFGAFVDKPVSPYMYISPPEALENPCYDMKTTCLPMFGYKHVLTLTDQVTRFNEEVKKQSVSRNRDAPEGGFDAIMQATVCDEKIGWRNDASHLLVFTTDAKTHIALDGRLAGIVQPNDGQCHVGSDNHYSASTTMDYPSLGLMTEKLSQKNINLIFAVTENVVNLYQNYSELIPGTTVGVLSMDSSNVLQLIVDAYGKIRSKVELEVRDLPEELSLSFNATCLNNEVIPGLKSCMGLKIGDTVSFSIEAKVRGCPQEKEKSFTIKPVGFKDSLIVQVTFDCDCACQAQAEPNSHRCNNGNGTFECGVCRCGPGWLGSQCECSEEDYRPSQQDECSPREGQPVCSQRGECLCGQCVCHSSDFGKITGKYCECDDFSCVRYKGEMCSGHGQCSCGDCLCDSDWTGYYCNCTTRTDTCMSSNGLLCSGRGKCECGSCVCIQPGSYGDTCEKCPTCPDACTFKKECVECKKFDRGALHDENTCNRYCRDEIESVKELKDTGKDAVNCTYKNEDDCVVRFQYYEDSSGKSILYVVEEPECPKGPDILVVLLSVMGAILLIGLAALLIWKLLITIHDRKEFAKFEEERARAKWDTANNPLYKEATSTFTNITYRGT

alpha4 integrin = molecular target: T2, alpha4 integrin (Homo sapiens, UniProt P13612); experiment: alpha4 integrin binding
T2 sequence (P13612 34-1032): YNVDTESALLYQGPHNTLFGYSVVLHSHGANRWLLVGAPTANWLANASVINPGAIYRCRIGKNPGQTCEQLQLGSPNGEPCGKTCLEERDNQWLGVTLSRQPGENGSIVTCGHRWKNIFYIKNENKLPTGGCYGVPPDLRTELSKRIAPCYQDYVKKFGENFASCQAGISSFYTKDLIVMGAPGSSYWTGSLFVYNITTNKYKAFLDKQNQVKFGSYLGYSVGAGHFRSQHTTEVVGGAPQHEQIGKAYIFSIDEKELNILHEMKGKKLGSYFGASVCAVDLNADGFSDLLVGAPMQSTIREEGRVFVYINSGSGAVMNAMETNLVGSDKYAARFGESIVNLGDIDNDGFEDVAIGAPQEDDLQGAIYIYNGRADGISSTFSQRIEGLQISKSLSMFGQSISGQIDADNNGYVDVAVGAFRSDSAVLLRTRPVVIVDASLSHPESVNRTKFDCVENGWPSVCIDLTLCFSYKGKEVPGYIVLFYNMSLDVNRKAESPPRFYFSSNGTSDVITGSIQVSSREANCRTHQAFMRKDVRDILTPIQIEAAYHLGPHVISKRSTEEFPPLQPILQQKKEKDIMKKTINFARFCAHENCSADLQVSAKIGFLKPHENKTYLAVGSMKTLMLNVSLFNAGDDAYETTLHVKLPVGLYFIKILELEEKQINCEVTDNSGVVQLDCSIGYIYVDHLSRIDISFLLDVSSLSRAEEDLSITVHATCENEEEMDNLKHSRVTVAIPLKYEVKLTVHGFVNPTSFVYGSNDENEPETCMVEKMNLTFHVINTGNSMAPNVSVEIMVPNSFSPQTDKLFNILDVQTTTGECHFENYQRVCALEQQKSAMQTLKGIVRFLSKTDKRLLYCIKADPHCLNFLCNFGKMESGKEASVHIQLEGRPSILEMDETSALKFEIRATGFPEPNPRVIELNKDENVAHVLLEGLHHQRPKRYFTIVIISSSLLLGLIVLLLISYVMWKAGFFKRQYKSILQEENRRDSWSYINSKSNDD

collagenase = experiment: Collagenase induction; assay type: cell-based
Fibronectin receptor = Fibronectin receptor (Homo sapiens, UniProt P05556+P08648); experiment: Fibronectin receptor binding
alphavbetax = experiment: Cell attachment, alphavbetax specific; assay type: cell-based
Endothelial cell = Endothelial cell attachment; assay type: cell-based
tumor cells [2] = experiment: Homotypic aggregation of tumor cells; assay type: cell-based
cell entry of peptides = experiment: Cell entry of peptides; assay type: cell-based
cell-cell adhesion = experiment: Cell-cell adhesion; assay type: cell-based
β integrin = β integrin binding
fibroblast = experiment: Fibroblast attachment; assay type: cell-based
[3] = test system: neutrophils, endothelium, fibrosarcomas melanoma; experiment: Attachment of neutrophils, endothelium, fibrosarcomas, melanoma; assay type: cell-based

Sequence of Fibronectin receptor (P08648 42-894 limits assumed): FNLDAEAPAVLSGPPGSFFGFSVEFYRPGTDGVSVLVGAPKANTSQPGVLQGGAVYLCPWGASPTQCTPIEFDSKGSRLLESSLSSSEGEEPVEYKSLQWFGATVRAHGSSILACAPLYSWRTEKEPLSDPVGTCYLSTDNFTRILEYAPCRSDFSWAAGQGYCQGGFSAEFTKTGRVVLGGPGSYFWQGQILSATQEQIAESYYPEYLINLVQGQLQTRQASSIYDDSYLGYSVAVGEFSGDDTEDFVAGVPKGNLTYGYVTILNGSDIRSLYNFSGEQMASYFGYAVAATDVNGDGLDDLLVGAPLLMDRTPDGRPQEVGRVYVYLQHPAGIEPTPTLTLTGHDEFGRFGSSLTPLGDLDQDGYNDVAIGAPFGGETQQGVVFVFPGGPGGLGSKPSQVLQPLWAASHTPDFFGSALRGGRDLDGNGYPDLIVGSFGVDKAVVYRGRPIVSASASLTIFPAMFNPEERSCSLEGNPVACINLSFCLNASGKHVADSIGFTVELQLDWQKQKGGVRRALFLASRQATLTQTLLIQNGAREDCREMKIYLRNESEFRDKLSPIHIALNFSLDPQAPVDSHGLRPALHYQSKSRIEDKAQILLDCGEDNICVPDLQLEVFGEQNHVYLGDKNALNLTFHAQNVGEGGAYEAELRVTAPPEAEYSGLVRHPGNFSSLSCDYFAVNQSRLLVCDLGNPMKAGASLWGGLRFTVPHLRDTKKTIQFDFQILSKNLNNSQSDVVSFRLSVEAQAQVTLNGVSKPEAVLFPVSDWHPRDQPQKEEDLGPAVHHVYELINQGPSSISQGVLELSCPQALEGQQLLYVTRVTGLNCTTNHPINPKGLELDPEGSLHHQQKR
Sequence of Fibronectin receptor (P08648 895-1049 limits assumed): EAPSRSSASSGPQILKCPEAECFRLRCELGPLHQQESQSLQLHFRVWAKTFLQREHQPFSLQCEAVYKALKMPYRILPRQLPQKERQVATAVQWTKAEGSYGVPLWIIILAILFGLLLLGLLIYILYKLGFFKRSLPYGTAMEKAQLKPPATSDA
Sequence of Fibronectin receptor (P05556 21-798): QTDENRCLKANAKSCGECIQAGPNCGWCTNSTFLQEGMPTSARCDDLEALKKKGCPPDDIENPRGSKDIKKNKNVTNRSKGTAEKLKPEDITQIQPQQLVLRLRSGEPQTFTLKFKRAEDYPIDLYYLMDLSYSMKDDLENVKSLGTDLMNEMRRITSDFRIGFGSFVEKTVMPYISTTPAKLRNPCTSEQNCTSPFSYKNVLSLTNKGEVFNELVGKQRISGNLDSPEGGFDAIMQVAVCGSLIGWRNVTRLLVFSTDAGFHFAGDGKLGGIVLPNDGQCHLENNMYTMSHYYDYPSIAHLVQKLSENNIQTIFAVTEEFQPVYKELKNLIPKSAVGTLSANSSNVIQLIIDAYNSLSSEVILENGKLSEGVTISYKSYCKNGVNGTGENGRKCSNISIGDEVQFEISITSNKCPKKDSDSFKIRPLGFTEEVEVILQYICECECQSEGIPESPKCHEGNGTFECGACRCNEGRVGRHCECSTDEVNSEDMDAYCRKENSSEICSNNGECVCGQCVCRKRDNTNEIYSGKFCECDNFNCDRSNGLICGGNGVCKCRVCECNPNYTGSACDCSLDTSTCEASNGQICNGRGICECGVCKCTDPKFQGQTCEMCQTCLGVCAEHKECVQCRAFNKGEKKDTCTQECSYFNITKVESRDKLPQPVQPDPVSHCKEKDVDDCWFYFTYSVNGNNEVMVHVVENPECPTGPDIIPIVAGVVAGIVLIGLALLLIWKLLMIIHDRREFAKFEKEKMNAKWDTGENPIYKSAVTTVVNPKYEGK

## TPTVRGAAGSGNQN (Anti-angiogenic)
angiogenesis
  FUNCTIONAL ACTIVITY: Anti-angiogenic: Anti-angiogenic

## DRYLKFRPV (Inhibits melanoma cell attachment.)
Melanoma cell
  FUNCTIONAL ACTIVITY: Inhibits melanoma cell attachment: Inhibits melanoma cell

## DGGRGDSLGWYRRGRGGARRSKAKKAAAKNNQKSEPLIGRKKT (Apoptotic to tumor cells.)
Tumor cells [1]
  FUNCTIONAL ACTIVITY: Apoptotic to tumor cells: Apoptotic to tumor cells

## HDRKEFAKFEEEERARA (beta 3 attachment.)
β3
  FUNCTIONAL ACTIVITY: β3 attachment: β3 attachment

## QESPSGTDLLVAGSSP (Inhibits alpha 4 integrin binding.)
alpha4 integrin
  FUNCTIONAL ACTIVITY: Inhibits alpha4 integrin binding: Inhibits alpha4 integrin

## LVPSSKGRGDYLAQSQP (Fibronectin receptor binding collagenase induction.)
collagenase
  FUNCTIONAL ACTIVITY: collagenase induction: collagenase induction
Fibronectin receptor
  FUNCTIONAL ACTIVITY: Fibronectin receptor binding: Fibronectin receptor binding

## TPFIPTESANDGRGDSVAW (Cell attachment/ alpha v beta x specific.)
alphavbetax
  FUNCTIONAL ACTIVITY: Cell attachment/alphavbetax specific: Cell attachment/a1phavbetax

## GRGDNPS (Fibronectin receptor binding collagenase induction.)
collagenase
  FUNCTIONAL ACTIVITY: collagenase induction: collagenase induction
Fibronectin receptor
  FUNCTIONAL ACTIVITY: Fibronectin receptor binding: Fibronectin receptor binding

## SDQDQDGDGHQDS (Endothelial cell attachment.)
Endothelial cell
  FUNCTIONAL ACTIVITY: Endothelial cell attachment: Endothelial cell attachment

## HGRFILPWWYAFSPS (Inhibits homotypic aggregation of tumor cells.)
Tumor cells [2]
  FUNCTIONAL ACTIVITY: Inhibit homotypic aggregation of tumor cells: Inhibit homotypic aggregation

## LDSAS: bioactive peptide isolated by minicell display (Inhibits alpha 4 integrin binding.)
alpha4 integrin
  FUNCTIONAL ACTIVITY: Inhibits alpha4 integrin binding: Inhibits alpha4 integrin

## CVVVLVL (Promotes cell entry of peptides.)
Cell entry of peptides
  FUNCTIONAL ACTIVITY: Promotes cell entry of peptides: Promotes cell entry of peptides

## HDRREFAKFQSERSRA (beta 3 attachment.)
β3
  FUNCTIONAL ACTIVITY: β3 attachment: β3 attachment

## QSWKKQGSPSSPQRRSKGGRKP (beta 3 attachment.)
β3
  FUNCTIONAL ACTIVITY: β3 attachment: β3 attachment

## QVGLKPLV (Anti-angiogenic.)
angiogenesis
  FUNCTIONAL ACTIVITY: Anti-angiogenic: Anti-angiogenic

## LDSPPAALS (Inhibits alpha 4 integrin binding.)
alpha4 integrin
  FUNCTIONAL ACTIVITY: Inhibits alpha4 integrin binding: Inhibits alpha4 integrin

## KKAKKSRRS (Anti-adhesion (cell-cell).)
cell-cell adhesion
  FUNCTIONAL ACTIVITY: Anti-adhesion (cell-cell): Anti-adhesion (cell-cell)

## KRSR: bioactive peptide isolated by minicell display (Apoptotic to tumor cells.)
Tumor cells [1]
  FUNCTIONAL ACTIVITY: Apoptotic to tumor cells: Apoptotic to tumor cells

## KKGKKSKRS (Anti-adhesion (cell-cell).)
cell-cell adhesion
  FUNCTIONAL ACTIVITY: Anti-adhesion (cell-cell): Anti-adhesion (cell-cell)

## DKKELAKFQAERSAAS (beta 3 attachment.)
β3
  FUNCTIONAL ACTIVITY: β3 attachment: β3 attachment

## TPVVPTVDTYDGRGDSLAY (beta integrin binding.)
β integrin
  FUNCTIONAL ACTIVITY: β integrin binding: β integrin binding

## WTGGDDSGSPSSPS (Inhibits alpha 4 integrin binding.)
alpha4 integrin
  FUNCTIONAL ACTIVITY: Inhibits alpha4 integrin binding: Inhibits alpha4 integrin

## RRSRSSTGKKQKSSQSRKTA (Anti-adhesion (cell-cell))
cell-cell adhesion
  FUNCTIONAL ACTIVITY: Anti-adhesion (cell-cell): Anti-adhesion (cell-cell)

## SDV: bioactive peptide isolated by minicell display (Inhibits alpha 4 integrin binding.)
alpha4 integrin
  FUNCTIONAL ACTIVITY: Inhibits alpha4 integrin binding: Inhibits alpha4 integrin

## DSVAYGLKSRSK (Inhibitor of heparin binding.)
Heparin binding
  FUNCTIONAL ACTIVITY: Inhibits heparin binding: Inhibits heparin binding

## PNGRGESLAY (Inhibits fibroblast attachment, inhibits collagenase induction.)
fibroblast
  FUNCTIONAL ACTIVITY: Inhibits fibroblast attachment: Inhibits fibroblast attachment,
collagenase
  FUNCTIONAL ACTIVITY: inhibits collagenase induction: inhibits collagenase induction

## DSVVYGLRSK (Inhibitor of heparin binding.)
Heparin binding
  FUNCTIONAL ACTIVITY: Inhibits heparin binding: Inhibits heparin binding

## ATWLPPR (Anti-angiogenic.)
angiogenesis
  FUNCTIONAL ACTIVITY: Anti-angiogenic: Anti-angiogenic

## HKFVHWKKPVLPSQNNQ (Inhibits melanoma cell attachment.)
Melanoma cell
  FUNCTIONAL ACTIVITY: Inhibits melanoma cell attachment: Inhibits melanoma cell

## KGMNYTVR (Inhibits neutrophils, endothelium, fibro- sarcomas, melanoma attachment.)
[3]
  FUNCTIONAL ACTIVITY: Inhibits, neutrophils, endothelium, fibrosarcomas melanoma attachment: Inhibits, neutrophils,

## DSVAYGLKSK (Inhibitor of heparin binding.)
Heparin binding
  FUNCTIONAL ACTIVITY: Inhibits heparin binding: Inhibits heparin binding

## SDQDNNGKGSHES (Endothelial cell attachment.)
Endothelial cell
  FUNCTIONAL ACTIVITY: Endothelial cell attachment: Endothelial cell attachment

## AADVESPS (Inhibits alpha 4 integrin binding.)
alpha4 integrin
  FUNCTIONAL ACTIVITY: Inhibits alpha4 integrin binding: Inhibits alpha4 integrin

## EPEESDVGGAADYP (Inhibits alpha 4 integrin binding.)
alpha4 integrin
  FUNCTIONAL ACTIVITY: Inhibits alpha4 integrin binding: Inhibits alpha4 integrin

## HDRKEVAKFEAERSKA (beta 3 attachment.)
β3
  FUNCTIONAL ACTIVITY: β3 attachment: β3 attachment
